{"source": "patent US7355024B2", "about": "“Regulatory sequences for modulation of INGAP expression and reporter constructs” (GMP Endotherapeutics, Inc., priority 2002, dated 2008)", "key": {"[1]": {"test_system": "hamster INGAP 5′-regulatory region", "experiment": "β-galactosidase reporter assay with hamster INGAP 5′-regulatory region fragments in transfected 293T cells", "type": "cell-based", "conditions": "human 293T cells", "description": "Promoter analysis of INGAP identified a number of potential promoter-proximal regulatory sites including the consensus transcription factor binding sites; cAMP response element (CRE), AP-1 and STAT. Promoter-fragment reporter-gene constructs were transiently transfected into 293T cells and co-transfection of secretory alkaline phosphatase was used to normalize for transfection efficiency.\n(§1) Reporter constructs containing INGAP 5′-regulatory region fragments 2—3sP (SEQ ID NO: 37), 2—3dP (SEQ ID NO: 38), 2—3pP (SEQ ID NO: 36), 14—3P (SEQ ID NO: 34), 16—3P (SEQ ID NO: 31), or 19—3P (SEQ ID NO: 23) were transfected into human cells. The pβGal-Basic plasmid without the hamster INGAP DNA was also transfected into human cells as a control to measure the level of endogenous reporter activity. Two days following transfection, the cells were treated with PMA for 24 hours or were untreated. To determine the level of promoter activity, the amount of β-galactosidase gene product was determined using a luminescent assay for β-galactosidase.\nas §1, with “construct” for “constructs”, “DNA nucleotides 2030 to 3120 was” for “fragments 2—3sP (SEQ ID NO: 37), 2—3dP (SEQ ID NO: 38), 2—3pP (SEQ ID NO: 36), 14—3P (SEQ ID NO: 34), 16—3P (SEQ ID NO: 31), or 19—3P (SEQ ID NO: 23) were”, “LIF” for “PMA”\nTo map the approximate location of PMA-initiated or LIF-initiated transcription factor binding different fragments of the hamster INGAP 5′-regulatory region were cloned into pβGal-Basic. The fragments cloned into the reporter construct were 2—3sP (SEQ ID NO: 37), 2—3dP (SEQ ID NO: 38), 2—3pP (SEQ ID NO: 36), 14—3P (SEQ ID NO: 34), 16—3P (SEQ ID NO: 31), or 19—3P (SEQ ID NO: 23). […] To determine the level of promoter activity, the amount of β-galactosidase gene product was determined using a luminescent assay for β-galactosidase. […]"}, "[2]": {"test_system": "INGAP gene", "experiment": "Northern RNA analysis of INGAP gene upregulation in AR42J cells", "type": "cell-based", "conditions": "rat AR42J cells; IL-6 1000 U/ml, 24 hours; FIG. 12", "procedure": "To determine if INGAP RNA levels increase after stimulation with a cytokine that signals through STAT, rat amphocrine pancreatic cells, AR42J were treated with IL-6 (1000 U/ml) for 24 hours. Total RNA was extracted from the treated and untreated cells using techniques well known in the art, e.g., using TRIZOL® reagent.\nEqual amounts of total RNA (10 μg) were loaded in 2.5% formaldehyde gel and electrophoresed for 4 hours at 70V with a constant circulation of the buffer using a circulating pump. The gel was photographed and washed with water twice at room temperature and soaked in 20×SSC. The gel was transferred to a nylon membrane (Amersham) in 20×SSC overnight following a standard procedure. The membrane was washed with 20×SSC to remove any agar that might have attached to the membrane and baked for 4 hours at […].\nOne hundred nanograms of hamster INGAP cDNA was labeled using Random Prime Labeling kit (Roche-BMB) and alpha-P^32 dCTP (ICN). Approximately 20 million counts were used for hybridization in 20 ml hybridization buffer following the standard procedure at 42° for overnight. The blot was washed as follows: 2-times at room temperature with 2×SSC for 10 minutes each; 2-times at 42° with 2×SSC for 10 minutes each; 2-times at 55° with 1×SSC for 10 minutes each. The membrane was exposed to the film (XOMAT-Kodak) and kept at −80° C. overnight before developing."}}, "data": [{"molecule": "CCCCCCCCCCCCCC(=O)O[C@@H]1[C@@H](C)[C@@]2(O)[C@@H](C=C(CO)C[C@]3(O)C(=O)C(C)=C[C@@H]23)[C@@H]2C(C)(C)[C@]12OC(C)=O", "note": "[PMA, phorbol myristate acetate, reference compound]", "values": [{"measurement": "promoter activity (β-galactosidase reporter, luminescent assay)", "setting": "[1]; constructs 2_3sP, 2_3dP, 2_3pP, 14_3P, 16_3P, 19_3P, PMA 6, 17, 50, 100 or 300 ng/ml, 24 hours, FIG. 10", "result": "activated the cell reporter constructs"}]}, {"molecule": "IL-6: cytokine that signals through STAT", "values": [{"measurement": "INGAP gene expression (RNA, Northern analysis)", "setting": "[2]", "result": "increase in INGAP gene expression"}]}, {"molecule": "LIF: human leukemia inhibitory factor (hLIF)", "values": [{"measurement": "promoter activity (β-galactosidase reporter, luminescent assay)", "setting": "[1]; construct with INGAP 5′-regulatory region nucleotides 2030 to 3120, treated 24 hours, two days after transfection, FIG. 9B", "result": "increase the activity of the 5′-regulatory region of mammalian INGAP"}, {"measurement": "promoter activity (β-galactosidase reporter, luminescent assay)", "setting": "[1]; constructs 2_3sP, 2_3dP, 2_3pP, 14_3P, 16_3P, 19_3P, LIF 1, 10 or 30 ng/ml, 24 hours, FIG. 11", "result": "activated the cell reporter constructs"}]}]}
